Experiment: Human HepG2 cell viability assay in 384 well format
Format: toxicity, cell-based
Set-up: dose 125 nL, time 70.5 hour; concentration not given beside the values
Details: HepG2 cells, read-out: Inhibition

SMILES	cytotoxicity at 70.5 h [%]
CCn1c(C2CCN(C(=O)c3cc(CC(C)C)no3)CC2)nn(C)c1=O	3.74
NC(=O)N1CCC(NCc2cc(C(F)(F)F)ccc2Cl)CC1	-5.57
CCn1ccnc1CN1CCC(N(C)Cc2ncc(C)o2)C1 (stereo not drawn)	20.1
Cc1[nH]ccc1C(=O)NCc1ncoc1C	-2.23
CNS(=O)(=O)c1ccc(CNC(=O)c2cc(-c3ccccn3)no2)cc1	-8.91
CCN(CC)c1ccc(CNC(=O)c2ccccn2)cn1	10.8
O=C(c1cnc(-c2ccccc2)nc1)N1CCOC2(CCCC2)C1	-8.9
Cc1nc2c(c(NCC(O)C(F)(F)F)n1)CCNCC2 (stereo not drawn)	11.7
Cn1cc(Br)c(C(=O)NCCCn2cc(Br)cn2)n1	6.5
COCCN1CCC2(COCc3cnc(-c4ccccc4)nc32)C1 (stereo not drawn)	-8.87
c1cncc(CN2CCc3ncnc(C4CC4)c3CC2)c1	2.26
CN(C)CCCNC(=O)c1cc(Br)c2c(c1)OCCO2	-7.25
CC(=O)N1CCc2ncc(CNC(=O)C3CCC3)n2CC1	-2.29
O=C(NCC1CC1)C1CN(C(=O)c2cccc(Cl)c2)CC12CCOCC2 (stereo not drawn)	38.6
COC(=O)c1ccc(Cn2cccc(C(F)(F)F)c2=O)s1	-2.65
O=C(Cc1ccsc1)N1CCn2cc(Cn3cncn3)nc2C1	2.98
O=C(Cc1ccc(F)cc1)NCc1ccc(C(=O)O)o1	-2.52
CCN1CCN(CC(=O)N2CCOC(Cc3ccc(OC)cc3)C2)CC1 (stereo not drawn)	-16
Cn1ccnc1-c1ccccc1C(=O)N1CCc2c(nc(N)[nH]c2=O)C1	-11.8
OCCNc1cc(N2CCC(n3cc(C4CCCC4)nn3)CC2)ncn1	-10.7
Cc1nc(CNc2ccc(C(=O)NCc3ccco3)cc2C)no1	-11.5
CN(Cc1ccsc1)C(=O)Nc1ccc(=O)n(C)c1	-6.48
CN1C(=O)C(C)(C)COc2cc(NS(=O)(=O)Cc3ccccc3)ccc21	9.19

SMILES	cytotoxicity at 70.5 h [%]
Cc1ncc(C(=O)N2CCOC(C(=O)N3CCCCCC3)C2)c(C)n1 (stereo not drawn)	1.17
CN(CCCC1CCCO1)S(=O)(=O)NCc1ccccc1 (stereo not drawn)	10.8
COc1cc(N2C[C@@H]3COC[C@]3(COc3ccc(C#N)cn3)C2)ncn1	7.01
CCCc1cncnc1N1CCC(NCc2ccncc2)CC1	-13.1
Cc1nn(C)c(C)c1C1CCCN1CCOc1cccc(C#N)c1 (stereo not drawn)	-3.95
COCCS(=O)(=O)NC(C)c1ccccc1Cl (stereo not drawn)	-2.47
COCC(=O)N[C@H](C)c1onc(-c2ccc(F)cc2)c1C(=O)O	-6.83
O=C(CN1CCC(c2ccnn2CCO)CC1)NCc1ccco1	11.2
Cc1cn2c(n1)CCC(NC(=O)c1nc(C)ncc1Cl)C2 (stereo not drawn)	-8.31
CCCc1cc(C(=O)NCCN2CCCS2(=O)=O)[nH]n1	-7.48
Cc1nc(C(=O)N2CCc3[nH]nc(Nc4ccccc4)c3C2)co1	-1.67
CC1(C(=O)NCc2cc(F)cc(F)c2)CCOCC1	-6.71
Cc1nn(C)c(N(C)C)c1CNCc1cccc(Cn2cncn2)c1	-3.12
CN(C)c1ncc2c(n1)C1(CCN(Cc3ccccc3)C1)COC2 (stereo not drawn)	-5.25
Cc1nccn1CC1CCCN1S(=O)(=O)Cc1ccccc1 (stereo not drawn)	-22.1
O=C(Nc1ccc2c(c1)OCO2)N1CCN(CCc2ccccc2)CC1	-6.84
COc1ccc(N2CCN(C(=O)CCn3nnnc3C)CC2(C)C)cc1	14
CC(C)C(C)NC(=O)CN1CCSCC1 (stereo not drawn)	-2.11
Cn1cc(C2CC(=O)NC23CCN(Cc2nccs2)CC3)cn1 (stereo not drawn)	-9.24
Cc1nn(C)c(C)c1C1CCCN1Cc1nc2ccccc2n1C (stereo not drawn)	0.883
CC(C)CNC(=O)c1cc2c(s1)CCN2Cc1cccnc1	-1.22
O=C(Nc1c(F)cccc1F)N1CC(c2nc(C3CC3)no2)C1	-6.67
Cc1ccc(N2CCCC(N3CCC(N(C)C)CC3)C2=O)cc1 (stereo not drawn)	13.2

SMILES	cytotoxicity at 70.5 h [%]
O=C(NC[C@H]1C[C@@H]2CCN1C[C@@H]2CN1CCCCC1)c1ccco1	0.157
CC(C)CN1C[C@@H]2C(=O)N(C)C3(CCN(C(=O)C(C)C)CC3)[C@@H]2C1	-6.33
Cc1cccc(-c2noc(CN3CC(n4cccn4)C3)n2)c1	-8.11
CS(=O)(=O)c1ccc(NC(=O)NCc2ccc(F)cc2)cn1	-0.885
COCc1c(C(=O)N2CCCC(C(=O)c3nccn3C)C2)noc1C (stereo not drawn)	-1.47
C[C@@H]1C(=O)NC[C@H]2CN(CCc3ccccc3)C[C@H]21	-0.303
Cc1noc(C(C)N2CCN(Cc3cccc(C#N)c3)CC2)n1 (stereo not drawn)	-5.03
O=C(c1cnc(-c2ncccn2)s1)N1CCCC(n2cccn2)C1 (stereo not drawn)	-10.1
CCn1cc(NC(=O)N2CCN(C(=O)Oc3ccccc3)CC2)cn1	-4.12
CSc1nccn1-c1cccc(C(=O)NCCN2CCS(=O)(=O)CC2)c1	0.708
O=S(=O)(CCN1CCCC1Cn1cccn1)c1ccccc1 (stereo not drawn)	-13.8
CC(C)c1cc(C(=O)N2C[C@H]3CC[C@@H]2CN(Cc2cscn2)C3)no1	15.2
CC(=O)N1CC(=O)N(c2cnn(C)c2)CC12CCN(Cc1cccs1)C2 (stereo not drawn)	-9.86
CN1CCN([C@@H]2CCN(Cc3ccc4cc(F)ccc4n3)C[C@H]2O)CC1	-1.96
O=C1CO[C@H]2CN(Cc3cccc4[nH]ccc34)C[C@@H]2N1C1CCOCC1	5.48
CSc1ccc(CN(CCO)C(=O)CCNC(C)=O)cc1	-14.7
O=C(Cc1ccc(O)c(F)c1)N1CCN(CC2CC2)[C@@H]2CS(=O)(=O)C[C@@H]21	-6.03
CCc1nnc(CN(C)Cc2cccc(C(=O)Nc3ccnn3C)c2)o1	1.53
Cc1cc(C(C)C(=O)N2CCCN(Cc3cscn3)CC2)c(C)o1 (stereo not drawn)	18.7
CCc1[nH]c2c(CNC(=O)C3CCC(=O)NC3)cc(C)cc2c1C (stereo not drawn)	-9.39
CCn1nc(C)cc1C(=O)OCCNC(=O)c1ccccc1	-0.786
Cc1ccc(C(=O)N2Cc3c(CN4CCCCC4)nn(C)c3C2)cc1F	36.2
CNc1nc(CNC(=O)Nc2cccc(CC(F)(F)F)c2)cs1	-4.82

SMILES	cytotoxicity at 70.5 h [%]
Cc1nc(CCN)cc(N(C)Cc2nc3ccc(F)cc3[nH]2)n1	0.172
O=C(c1ccc2c(c1)CCC2)N1CCN(c2ccc(Cl)cn2)CC1	6.01
Cc1nc(CO[C@@H]2CN(Cc3cnn(C)c3)[C@@H]3COC[C@@H]32)cs1	5.43
CNc1cc(N2CCCC2CNCc2cscn2)ncn1 (stereo not drawn)	1.05
CNC(=O)Cc1noc(Cc2cccc(Br)c2)n1	-9.45
CSCCC(Nc1nc(C)cc(C)n1)C(=O)NC1CCCC1 (stereo not drawn)	-12.6
CC(C)Nc1ccc2c(c1)C1(CCOCC1)C(=O)N2c1ccsc1	-7.35
NCc1ccc(Oc2ccc(F)c(F)c2)cc1C(F)(F)F	-0.173
Cc1nc(C2CCCN2C(=O)c2cc3c(s2)CCC3)no1 (stereo not drawn)	-6.34
NCC1CCCCN1C(=O)Cc1ccc(F)c(F)c1 (stereo not drawn)	-9.5
CC(C)(C)c1noc(CN2CCN(C(=O)c3cccs3)CC2)n1	-12.1
CN(CC1(O)CCCN(c2ccccn2)C1)C(=O)Cc1ccsc1 (stereo not drawn)	-9.68
CC(=O)c1ccc(Cl)c(Cl)c1OCC(=O)NC(N)=O	14.2
NC(=O)Cn1cc(NC(=O)N2CCCC2)cn1	-29.6
O=C(NC[C@]1(O)CN(Cc2ccc(F)cc2)C[C@H]1O)c1ccccn1	-6.05
CCN(CCc1nc2cc(C)ccc2[nH]1)C(=O)[C@@H](N)CCSC	-4.38
OC1CCN(CCNc2ncc3c(n2)CCN3c2ccccc2)CC1	-7.98
CNc1snc(C)c1C(=O)N1CCCC(n2cc(C)cn2)C1 (stereo not drawn)	-8.17
CC(C(=O)NCc1ccnc(N(C)C)c1)n1cccn1 (stereo not drawn)	-3.71
Cc1cc(C)c(CNC(=O)NCC2COCCO2)c(=O)[nH]1 (stereo not drawn)	-4.78
CC(NC(=O)N1CCC1)c1ccc(S(N)(=O)=O)cc1 (stereo not drawn)	-7.27
CC(C)(C)c1nc(CC(=O)NC2CCN(C3CC3)C2)cs1 (stereo not drawn)	-6.08
Cn1c2c(ccc1=O)CC(Nc1ncc(F)cn1)CC2 (stereo not drawn)	-11.5

SMILES	cytotoxicity at 70.5 h [%]
CCOc1ccc(CC(CNC(=O)c2ccoc2C)C(N)=O)cc1 (stereo not drawn)	-10.1
Cn1cnnc1C1CCCN(C(=O)NCc2ccccn2)C1 (stereo not drawn)	15.7
COc1ncccc1CN1CCC2(CC1)COCCN2C	-8.7
Cc1cc(C(=O)N2CCCC2c2nnc3n2CCCCC3)no1 (stereo not drawn)	-7.37
O=C(c1ccc(Cl)c(Cl)c1)N1CCCC(n2cncn2)C1 (stereo not drawn)	-14
CSc1cccc(NC(=O)CCC(=O)Nc2nccs2)c1	14.4
Cc1nc(-c2ccc(C(=O)O)cc2)cc(C2CCCN(C(C)C)C2)n1 (stereo not drawn)	9.4
CC(NC(=O)NCc1cccc(CN2CCCC2)c1)c1nccs1 (stereo not drawn)	-5.42
Cc1nnn2c1COCC(CNCc1nccs1)C2 (stereo not drawn)	-10.3
CCNC(=O)[C@@H]1CCCN1C(=O)c1cccc(CCC(C)(C)O)c1	-7.73
CC(C)(C)c1cc(CN2C[C@H]3CC[C@@H]2CN(Cc2cscn2)C3)n[nH]1	13.7
O=C(CCn1ccnc1)N1C[C@@H](O)[C@H](Oc2cccc(F)c2)C1	0.895
CCN(CC)C(=O)N1CCN(CCc2ccncc2)CC1	-7.09
CCn1cc(CN2CCCn3nc(CNC(=O)C4CCC4)cc3C2)cn1	-9
CC(C)C(C(=O)N1CCC(Nc2cccnn2)CC1)n1cncn1 (stereo not drawn)	-11.9
CNC(=O)C(CC(C)C)NC(=O)c1cccc(-c2nc(C)cs2)c1 (stereo not drawn)	15.4
CC1=Nc2c(c(=O)[nH]n2C(C)C)C(c2ccc3ncccc3c2)S1 (stereo not drawn)	0.555
CNC(=O)c1cccnc1NCCOc1ccccc1	-0.952
CN(Cc1cccc(Cl)c1)Cc1nnsc1Cl	-5.2
O=S(=O)(CCCN1CCc2c(ncn2C2CC2)C1)c1ccccc1	1.18
Cc1cc(CNC(=O)c2cn(CCC3CCCCN3)nn2)on1 (stereo not drawn)	-5.72
